Test results from paper PMC5772529 (Scientific Reports, 2018).
Positions of bridges follow the written chain, without caps; N, C: chain ends. Residues, ends and D or L forms follow the SMILES beside them.

What was measured:
mice [1] = details: mouse, in vivo
rats = details: rat, in vivo
mice [2] = details: mouse, in vivo; remark: listed apart in the source
mice [3] = details: mouse, in vivo; remark: listed apart in the source
Beagle dogs = details: dog, in vivo

CSCC[C@@H]1NC(=O)[C@@H]2CSSC[C@H](NC(=O)CN)C(=O)N[C@@H](CSSC[C@@H](C(N)=O)NC(=O)[C@H](CC(C)C)NC(=O)[C@H](CC(N)=O)NC(=O)[C@@H]3CCCN3C(=O)[C@H](CC(N)=O)NC(=O)[C@H](CCCCN)NC(=O)[C@H](CC(C)C)NC1=O)C(=O)N[C@@H](CO)C(=O)N[C@@H](CC(N)=O)C(=O)N1CCC[C@H]1C(=O)N[C@@H](C)C(=O)N2 [Eu1.6] (H-GCCSNPACMLKNPNLC-NH2; disulfide 2-8, 3-16)
morphine-like addictive symptoms (mice [1]): did not exhibit the morphine-like addictive symptoms | morphine-like dependence (naloxone-induced jumping number, weight loss) (mice [1]): did not produce morphine-like dependence | side-effects in acute tests of rats (rats): did not exhibit any significant side-effects | effect on mice motor function (mice [2]): did not show any significant effect | effects on mice spontaneous locomotor activity (mice [3]): no significant effects | effects on spontaneous locomotor activity (moving distance and activity time in 6 min) (mice [3]): no significant effects | effect on cardiac or respiratory function (Beagle dogs): did not show any significant effect | effect on the cardiac and respiratory function (Beagle dogs): no significant effect | activity at KCNQ1 channels (KCNQ1): no activity
